Assay results from patent publication US11116219B2, “Method for controlling discharge-type multidrug resistant plant diseases” (SUMITOMO CHEMICAL COMPANY, LIMITED, priority 2017, dated 2021).

Columns and labels:
[1] = tested on: wheat Septoria leaf blotch fungus (Zymoseptoria tritici) wild-type fungus strain; experiment: Control test against wheat Septoria leaf blotch fungus, wild-type fungus strain (titer plate growth, absorbance at 600 nm); format: cell-based; details: PDB culture media, 18° C., 4 days
Method: (§1) Control test against Efflux type multidrug resistant wheat Septoria leaf blotch fungus (Zymoseptoria tritici)
(§2) Each of the present compound (1) and tolnaftrate was diluted with dimethyl sulfoxide to a prescribed concentration thereof, respectively. Each of the chemical solutions comprising the respective testing compound was dispensed into a titer plate (with 96 wells) in the amount of 1 μL. […] The plate was cultured at 18° C. for 4 days, thereby allowing each wheat Septoria leaf blotch fungus to undergo proliferation, and the absorbance at 600 nm of each well of the titer plate was then measured to determine a degree of growth of the wheat Septoria leaf blotch fungus (treated group). […]
(§3) The efficacy was calculated from the degree of the growth by the below-mentioned “Equation 1”, and then each EC50 value of the testing compound, respectively against the efflux type multidrug resistant fungus strains and the wild-type fungus strain was calculated. Next, as shown in the below-mentioned “Equation 2”, an EC50 value ratio was calculated by dividing an EC50 value against the efflux type multidrug resistant fungus strains by an EC50 value against the wild-type fungus strain. […]

[2] = tested on: Efflux type multidrug resistant wheat Septoria leaf blotch fungus (Zymoseptoria tritici), fungus strain St 106-6; experiment: Control test against efflux type multidrug resistant wheat Septoria leaf blotch fungus (titer plate growth, absorbance at 600 nm); format: cell-based
Method: as §1, §2, §3

[3] = tested on: grapes gray mold fungus (Botrytis cinerea) wild-type fungus strain; experiment: Control test against grapes gray mold fungus, wild-type fungus strain (titer plate growth, absorbance at 600 nm); format: cell-based; details: PDB culture media, 18° C., 2 days
Method: (§4) Control Test Against Efflux Type Multidrug Resistant Grapes Gray Mold Fungus (Botrytis cinerea)
(§5) Each of the present compound (1), fludioxonil and tolnaftrate was diluted with dimethyl sulfoxide to a prescribed concentration thereof, respectively. Each of the chemical solutions comprising the respective testing compound was dispensed into a titer plate (with 96 wells) in the amount of 1 μL. […] The plate was cultured at 18° C. for 2 days, thereby allowing each grapes gray mold fungus to undergo proliferation, and the absorbance at 600 nm of each well of the titer plate was then measured to determine a degree of growth of each of the grapes gray mold fungi (treated group). […]
(§6) The efficacy was calculated from the degree of the growth by the below-mentioned “Equation 1”, and then each EC50 value of the testing compound, respectively against the efflux type multidrug resistant fungus strains and the wild-type fungus strain was calculated. Also, an EC50 value ratio was calculated by the above-mentioned “Equation 2”.

[4] = tested on: efflux type multidrug resistant fungus strain 1: ABC transporter-overexpressing fungus strain (Bc-56) of grapes gray mold fungus (Botrytis cinerea); experiment: Control test against efflux type multidrug resistant grapes gray mold fungus, strain 1; format: cell-based
Method: as §4, §5, §6

[5] = tested on: efflux type multidrug resistant fungus strain 2: MFS transporter-overexpressing fungus strain (Bc-107) of grapes gray mold fungus (Botrytis cinerea); experiment: Control test against efflux type multidrug resistant grapes gray mold fungus, strain 2; format: cell-based
Method: as §4, §5, §6

[6] = tested on: efflux type multidrug resistant fungus strain 3: ABC transporter and MFS transporter-overexpressing fungus strain (Bc-103) of grapes gray mold fungus (Botrytis …); experiment: Control test against efflux type multidrug resistant grapes gray mold fungus, strain 3; format: cell-based, Botrytis cinerea
Method: as §4, §5, §6

Cn1c(=O)c2sc3c(=O)n(C)c(=O)c3sc2c1=O [Present compound (1)]
EC50 value, Wild-type fungus strain [1]: 1.2 ppm
EC50 value ratio ([2]; EC50 against efflux type multidrug resistant fungus strain / EC50 against wild-type fungus strain, Zymoseptoria tritici): 1.1
EC50 value, Efflux type multidrug resistant fungus strain ([2]; Zymoseptoria tritici St 106-6, PDB culture media, 18° C., 4 days): 1.3 ppm
EC50 value, Wild-type fungus strain [3]: 1.9 ppm
EC50 value, Efflux type multidrug resistant fungus strain 1 ([4]; Botrytis cinerea Bc-56 (ABC transporter-overexpressing), 18° C., 2 days): 1.7 ppm
EC50 value ratio 1 ([4]; EC50 against efflux type multidrug resistant strain 1 / EC50 against wild-type, Botrytis cinerea): 0.89
EC50 value, Efflux type multidrug resistant fungus strain 2 ([5]; Botrytis cinerea Bc-107 (MFS transporter-overexpressing), 18° C., 2 days): 1.7 ppm
EC50 value ratio 2 ([5]; EC50 against efflux type multidrug resistant strain 2 / EC50 against wild-type, Botrytis cinerea): 0.89
EC50 value, Efflux type multidrug resistant fungus strain 3 ([6]; Botrytis cinerea Bc-103 (ABC and MFS transporter-overexpressing), 18° C., 2 days): 2.4 ppm
EC50 value ratio 3 ([6]; EC50 against efflux type multidrug resistant strain 3 / EC50 against wild-type, Botrytis cinerea): 1.3
